Reference: US20240067632A1, “WEE1 Degrading Compounds and Uses Thereof” (Bristol-Myers Squibb Company, priority 2022, published 2024)
Where two headings read alike, the source gives them in different places.

Columns and labels:
[1] = target: T1, WEE1 (Homo sapiens, UniProt P30291+Q96SW2); experiment: WEE1-ePL degradation assay (LentiX-WEE1-ePL-GSPT1-ND cells, InCELL Hunter luminescence, 4 h); format: cell-based; conditions: 293T-LentiX WEE1-ePL cells; for DC50: read-out: 293T-LentiX WEE1-ePL Degradation 4 hr (EC50)
T1 construct: C-terminal ePL-tagged (DiscoverX, Fremont, CA) full-length WEE1 expression construct; expressed in transfected cells; host or cells: LentiX-HEK293T (Invitrogen), lentiviral transduction; co-expressing GSPT1-GN (G576N, lacking the first 158 amino acids)
How it was run: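 First, compounds were pre-plated as 10-point, 3-fold dilutions (top 1 uM or 10 uM) with DMSO control; next, WEE1-ePL-expressing HEK293T cells were added and held 4 h at 37 °C; finally, InCELL Hunter reagent was applied for 30 min before luminescence reading. A 4PL fit gave EC50 and Ymin.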

[2] = tested on: MKN45 cells; experiment: MKN45 cell proliferation assay (Cell-Titer-Glo, 120 h); format: cell-based; conditions: for EC50: Homo sapiens, MKN-45, 120 h, Cell-Titer-Glo, read-out: MKN45 Cell Prolif. 120 hr (EC50); for MKN45 Cell Prolif. 120 hr (Ymin-Obs): minimal percent of DMSO control observed in the concentrations tested
How it was run: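 Cells seeded at 400/well onto pre-printed 10-point half-log dilutions (top 1 or 10 uM, 0.1% DMSO final), in triplicate, and grown 120 h at 37 C. Viability by Cell-Titer-Glo luminescence, blank-subtracted and normalised to DMSO; EC50 from four-parameter logistic fit, with observed minimal % of control recorded as Ymin-obs.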

[3] = lower limit of the fit (0 = luciferase inhibitor, Ymax = DMSO control)
[4] = lower limit of the fit (Ymin=0 luciferase inhibitor, Ymax DMSO control)

Row | 293T-LentiX WEE1-ePL Degradation 4 hr (Ymin) [1, 3] | DC50 [1] | EC50 ([2]; growth inhibition) | 293T-LentiX WEE1-ePL Degradation 4 hr (Ymin) [1, 4] | EC50 [2] | Compound | MKN45 Cell Prolif. 120 hr (Ymin-Obs) [2]
1 |  | 27.6 nM |  | 33.6 | 13.4 nM | O=C1CC[C@H](N2Cc3cc(O[C@H]4CCN(Cc5cc(F)c6nc(C7CCOCC7)ncc6c5)C4)ccc3C2=O)C(=O)N1 [(3S)-3-(5-{[(3S)-1-{[8-fluoro-2-(oxan-4-yl)quinazolin-6-yl]methyl}pyrrolidin-3-yl]oxy}-1-oxo-2,3-dihydro-1H-isoindol-2-yl)piperidine-2,6-dione] | 9.241
2 | 32 | 1.21 nM | 6.04 nM |  |  | COC(C)(C)c1ccc2cc(CN3CC[C@H](Oc4ccc5c(c4)CN(C4CCC(=O)NC4=O)C5=O)C3)ncc2c1 (stereo partly drawn) [3-(5-{[(3S)-1-{[7-(2-methoxypropan-2-yl)isoquinolin-3-yl]methyl}pyrrolidin-3-yl]oxy}-1-oxo-2,3-dihydro-1H-isoindol-2-yl)piperidine-2,6-dione] | 11.51
3 | 31.475 | 9.39 nM | 54.4 nM |  |  | O=C1CCC(N2Cc3cc(O[C@H]4CCN(Cc5ccc6nc(CO)ccc6c5)C4)ccc3C2=O)C(=O)N1 (stereo partly drawn) [3-(5-{[(3S)-1-{[2-(hydroxymethyl)quinolin-6-yl]methyl}pyrrolidin-3-yl]oxy}-1-oxo-2,3-dihydro-1H-isoindol-2-yl)piperidine-2,6-dione] | 11.84
4 | 32 | 47.5 nM | 78.5 nM |  |  | COCc1ncc2cc(CN3CC[C@H](Oc4ccc5c(c4)CN(C4CCC(=O)NC4=O)C5=O)C3)ccc2n1 (stereo partly drawn) [3-(5-{[(3S)-1-{[2-(methoxymethyl)quinazolin-6-yl]methyl}pyrrolidin-3-yl]oxy}-1-oxo-2,3-dihydro-1H-isoindol-2-yl)piperidine-2,6-dione] | 9.73
5 | 29 | 1.2 nM | 5.83 nM |  |  | N#Cc1nc2ccccc2cc1CN1CC[C@H](Oc2ccc3c(c2)CN(C2CCC(=O)NC2=O)C3=O)C1 (stereo partly drawn) [3-{[(3S)-3-{[2-(2,6-dioxopiperidin-3-yl)-1-oxo-2,3-dihydro-1H-isoindol-5-yl]oxy}pyrrolidin-1-yl]methyl}quinoline-2-carbonitrile] | 6.985
6 | 27.68 | 2.71 nM | 3.52 nM |  |  | C[C@@H]1CN(Cc2ccc3nc(C4CCOCC4)ccc3c2)C[C@H]1Oc1ccc2c(c1)CN(C1CCC(=O)NC1=O)C2=O (stereo partly drawn) [3-(5-{[(3S,4R)-4-methyl-1-{[2-(oxan-4-yl)quinolin-6-yl]methyl}pyrrolidin-3-yl]oxy}-1-oxo-2,3-dihydro-1H-isoindol-2-yl)piperidine-2,6-dione] | 9.683

Second part, the molecule before the results:

Row | Compound | 293T-LentiX WEE1-ePL Degradation 4 hr (Ymin) [1, 3] | DC50 [1] | EC50 ([2]; growth inhibition) | 293T-LentiX WEE1-ePL Degradation 4 hr (Ymin) [1, 4] | EC50 [2] | MKN45 Cell Prolif. 120 hr (Ymin-Obs) [2]
7 | O=C1CCC(N2Cc3cc(O[C@H]4CCN(Cc5cc6ccc(C(F)(F)F)cc6cn5)C4)ccc3C2=O)C(=O)N1 (stereo partly drawn) [3-(1-oxo-5-{[(3S)-1-{[7-(trifluoromethyl)isoquinolin-3-yl]methyl}pyrrolidin-3-yl]oxy}-2,3-dihydro-1H-isoindol-2-yl)piperidine-2,6-dione] | 31 | 1.47 nM | 1.14 nM |  |  | 6.875
8 | Cc1cnc2ccc(CN3CC[C@H](Oc4ccc5c(c4)CN(C4CCC(=O)NC4=O)C5=O)C3)cc2c1 (stereo partly drawn) [3-(5-{[(3S)-1-[(3-methylquinolin-6-yl)methyl]pyrrolidin-3-yl]oxy}-1-oxo-2,3-dihydro-1H-isoindol-2-yl)piperidine-2,6-dione] | 38.21 | 4.47 nM | 63.5 nM |  |  | 21.51
9 | O=C1CCC(N2Cc3cc(O[C@H]4CCN(Cc5ccnc6ccccc56)C4)ccc3C2=O)C(=O)N1 (stereo partly drawn) [3-(1-oxo-5-{[(3S)-1-[(quinolin-4-yl)methyl]pyrrolidin-3-yl]oxy}-2,3-dihydro-1H-isoindol-2-yl)piperidine-2,6-dione] | 33.025 | 23.4 nM | 56.8 nM |  |  | 13.21
10 | O=C1CCC(N2Cc3cc(O[C@H]4CCN(Cc5ccc6nc(-n7ccccc7=O)ccc6c5)C4)ccc3C2=O)C(=O)N1 (stereo partly drawn) [3-(1-oxo-5-{[(3S)-1-{[2-(2-oxo-1,2-dihydropyridin-1-yl)quinolin-6-yl]methyl}pyrrolidin-3-yl]oxy}-2,3-dihydro-1H-isoindol-2-yl)piperidine-2,6-dione] | 35 | 2.27 nM | 1.93 nM |  |  | 8.805
11 | CC1(C)CC(=O)N(c2ccc3cc(CN4CC[C@H](Oc5ccc6c(c5)CN(C5CCC(=O)NC5=O)C6=O)C4)ccc3n2)C1 (stereo partly drawn) [3-(5-{[(3S)-1-{[2-(4,4-dimethyl-2-oxopyrrolidin-1-yl)quinolin-6-yl]methyl}pyrrolidin-3-yl]oxy}-1-oxo-2,3-dihydro-1H-isoindol-2-yl)piperidine-2,6-dione] | 31 | 1.58 nM | 2.77 nM |  |  | 8.145
12 | C[C@@H]1CC(c2ccc3cc(CN4CC[C@H](Oc5ccc6c(c5)CN(C5CCC(=O)NC5=O)C6=O)C4)ccc3n2)C[C@H](C)O1 (stereo partly drawn) [3-(5-{[(3S)-1-({2-[(2R,6S)-2,6-dimethyloxan-4-yl]quinolin-6-yl}methyl)pyrrolidin-3-yl]oxy}-1-oxo-2,3-dihydro-1H-isoindol-2-yl)piperidine-2,6-dione] | 30.42 | 11.7 nM | 10.4 nM |  |  | 14.48
13 | O=C1CCC(N2Cc3cc(O[C@H]4CCN(Cc5ccc6nc(N7C[C@H]8C[C@@H](C7)O8)ncc6c5)C4)ccc3C2=O)C(=O)N1 (stereo partly drawn) [3-(5-{[(3S)-1-({2-[(1R,5S)-6-oxa-3-azabicyclo[3.1.1]heptan-3-yl]quinazolin-6-yl}methyl)pyrrolidin-3-yl]oxy}-1-oxo-2,3-dihydro-1H-isoindol-2-yl)piperidine-2,6-dione] | 39 | 20.2 nM | 16.4 nM |  |  | 13.42
14 | O=C1CCC(N2Cc3cc(O[C@H]4CCN(Cc5ccc6nc(N7C[C@@H]8C[C@H]7CO8)ccc6c5)C4)ccc3C2=O)C(=O)N1 (stereo partly drawn) [3-(5-{[(3S)-1-({2-[(1S,4S)-2-oxa-5-azabicyclo[2.2.1]heptan-5-yl]quinolin-6-yl}methyl)pyrrolidin-3-yl]oxy}-1-oxo-2,3-dihydro-1H-isoindol-2-yl)piperidine-2,6-dione] | 34 | 2.98 nM | 5.54 nM |  |  | 8.09
15 | O=C1CCC(N2Cc3cc(O[C@H]4CCN(Cc5ccc6nc(N7C[C@H]8C[C@@H]7CO8)ccc6c5)C4)ccc3C2=O)C(=O)N1 (stereo partly drawn) [3-(5-{[(3S)-1-({2-[(1R,4R)-2-oxa-5-azabicyclo[2.2.1]heptan-5-yl]quinolin-6-yl}methyl)pyrrolidin-3-yl]oxy}-1-oxo-2,3-dihydro-1H-isoindol-2-yl)piperidine-2,6-dione] | 33 | 5.67 nM | 6.19 nM |  |  | 9.745
16 | CO[C@@H]1CCCC[C@H]1c1ccc2cc(CN3CC[C@H](Oc4ccc5c(c4)CN(C4CCC(=O)NC4=O)C5=O)C3)ccc2n1 (stereo partly drawn) [3-(5-{[(3S)-1-({2-[(1S,2R)-2-methoxycyclohexyl]quinolin-6-yl}methyl)pyrrolidin-3-yl]oxy}-1-oxo-2,3-dihydro-1H-isoindol-2-yl)piperidine-2,6-dione] |  | 21.5 nM |  | 32.43 | 428 nM | 51.58
17 | Cc1ccc2cc(CN3CC[C@H](Oc4ccc5c(c4)CN(C4CCC(=O)NC4=O)C5=O)[C@@H]3C)ccc2n1 (stereo partly drawn) [3-(5-{[(2S,3S)-2-methyl-1-[(2-methylquinolin-6-yl)methyl]pyrrolidin-3-yl]oxy}-1-oxo-2,3-dihydro-1H-isoindol-2-yl)piperidine-2,6-dione] | 99.5 |  | > 10000 nM |  |  | 87.455
18 | CN1CCc2c(cncc2CN2CC[C@H](Oc3ccc4c(c3)CN(C3CCC(=O)NC3=O)C4=O)C2)C1 (stereo partly drawn) [3-(5-{[(3S)-1-[(7-methyl-5,6,7,8-tetrahydro-2,7-naphthyridin-4-yl)methyl]pyrrolidin-3-yl]oxy}-1-oxo-2,3-dihydro-1H-isoindol-2-yl)piperidine-2,6-dione] | 68 | 558 nM | > 10000 nM |  |  | 84.06
19 | COC[C@@H]1CCC[C@@H]1c1ccc2cc(CN3CC[C@H](Oc4ccc5c(c4)CN(C4CCC(=O)NC4=O)C5=O)C3)ccc2n1 (stereo partly drawn) [3-(5-{[(3S)-1-({2-[(1S,2R)-2-(methoxymethyl)cyclopentyl]quinolin-6-yl}methyl)pyrrolidin-3-yl]oxy}-1-oxo-2,3-dihydro-1H-isoindol-2-yl)piperidine-2,6-dione] |  | 0.334 nM |  | 26.36 | 5.76 nM | 11.34
